“And” between values parts separate entries of the source, which are not always exact repeats. Equal values may be shown once. Inconclusive results and toxic doses are left out. How the source made its calls: active means survival T/C of 150% or more; inactive means T/C below 125% in these data.
Tested on: P388 leukemia ip, CD2F1 mice, survival T/C
Test: NCI In Vivo Anticancer Drug Screen. Data for tumor model P388 Leukemia (intraperitoneal) in CD2F1 (CDF1) mice
Conditions: endpoint: median survival time, higher = longer survival
In short: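 Mice carrying the transplanted tumor received test compound or vehicle. Survival was recorded in each group, and the value is the treated-group measurement divided by that of the vehicle-treated control group.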

[1] = dose: 100.0 mg/kg/injection, schedule: Q04DX003 (ip), vehicle: saline
[2] = dose: 200.0 mg/kg/injection, schedule: Q04DX003 (ip), vehicle: saline
[3] = dose: 100.0 mg/kg/injection, schedule: Q04DX003 (ip), vehicle: saline with Tween-80
[4] = dose: 400.0 mg/kg/injection, schedule: Q04DX003 (ip), vehicle: saline with Tween-80
[5] = dose: 60.0 mg/kg/injection, schedule: Q01DX005 (ip), vehicle: saline with Tween-80
[6] = dose: 120.0 mg/kg/injection, schedule: Q01DX005 (ip), vehicle: saline with Tween-80
[7] = dose: 50.0 mg/kg/injection, schedule: Q01DX005 (ip), vehicle: saline with Tween-80
[8] = dose: 100.0 mg/kg/injection, schedule: Q01DX005 (ip), vehicle: saline with Tween-80
[9] = dose: 200.0 mg/kg/injection, schedule: Q01DX005 (ip), vehicle: saline with Tween-80

Measured: T/C

C=C1CCN(c2ccc(Br)cc2)C1=O
inactive: dose: 4.0 mg/kg/injection, schedule: Q01DX009 (ip), vehicle: saline + alcohol 104 % of control | dose: 8.0 mg/kg/injection, schedule: Q01DX009 (ip), vehicle: saline + alcohol 92 % of control | dose: 16.0 mg/kg/injection, schedule: Q01DX009 (ip), vehicle: saline + alcohol 98 % of control | dose: 32.0 mg/kg/injection, schedule: Q01DX009 (ip), vehicle: saline + alcohol 91 % of control | dose: 64.0 mg/kg/injection, schedule: Q01DX009 (ip), vehicle: saline + alcohol 98 % of control

CC(C)(C)c1cc(C(=S)SCc2ccccc2)cc(C(C)(C)C)c1O
inactive: dose: 50.0 mg/kg/injection, schedule: Q01DX009 (ip), vehicle: saline with Tween-80 93 % of control | dose: 100.0 mg/kg/injection, schedule: Q01DX009 (ip), vehicle: saline with Tween-80 105 % of control | dose: 200.0 mg/kg/injection, schedule: Q01DX009 (ip), vehicle: saline with Tween-80 105 % of control

CCOC(=O)c1cnc(N)nc1CCC(=O)O
inactive: dose: 37.5 mg/kg/injection, schedule: Q01DX009 (ip), vehicle: saline with Tween-80 107 % of control | dose: 75.0 mg/kg/injection, schedule: Q01DX009 (ip), vehicle: saline with Tween-80 102 % of control | dose: 150.0 mg/kg/injection, schedule: Q01DX009 (ip), vehicle: saline with Tween-80 107 % of control

COCCOCCOCCOCCn1cc(F)c(=O)[nH]c1=O
inactive: dose: 50.0 mg/kg/injection, schedule: Q04DX002 (ip), vehicle: saline 104 % of control | dose: 100.0 mg/kg/injection, schedule: Q04DX002 (ip), vehicle: saline 94 % of control | dose: 200.0 mg/kg/injection, schedule: Q04DX002 (ip), vehicle: saline 100 % of control | dose: 400.0 mg/kg/injection, schedule: Q04DX002 (ip), vehicle: saline 94 % of control

CCOC(=O)NC(NC(=O)OCC)c1ccc(OC)cc1
inactive: [1] 100 % of control | [2] 91 % of control | dose: 400.0 mg/kg/injection, schedule: Q04DX003 (ip), vehicle: saline 94 % of control

CCOC(=O)CN=CC1CCC=CO1 (stereo not drawn)
inactive: [3] 100 % of control | dose: 200.0 mg/kg/injection, schedule: Q04DX003 (ip), vehicle: saline with Tween-80 100 % of control | [4] 100 % of control

CCN(CC)CCO[C@H]1CC[C@@]2(C)C(=CC[C@@H]3[C@@H]2CC[C@]2(C)C(=O)CC[C@@H]32)C1
inactive: dose: 5.0 mg/kg/injection, schedule: Q01DX009 (ip), vehicle: saline with Tween-80 104 % of control | dose: 5.0 mg/kg/injection, schedule: Q04DX003 (ip), vehicle: saline with Tween-80 91 % of control | dose: 10.0 mg/kg/injection, schedule: Q01DX009 (ip), vehicle: saline with Tween-80 91 % of control | dose: 10.0 mg/kg/injection, schedule: Q04DX003 (ip), vehicle: saline with Tween-80 91 % of control | dose: 20.0 mg/kg/injection, schedule: Q01DX009 (ip), vehicle: saline with Tween-80 95 % of control | dose: 20.0 mg/kg/injection, schedule: Q04DX003 (ip), vehicle: saline with Tween-80 100 % of control

COc1cc(C2c3cc4c(cc3OC3(O)CCCC23)OCO4)cc(OC)c1OC (stereo not drawn)
inactive: [5] 91 % of control | [6] 93 % of control | dose: 240.0 mg/kg/injection, schedule: Q01DX005 (ip), vehicle: saline with Tween-80 99 % of control

CN(C)c1ccc(C2(c3ccc(N(C)C)cc3)NNC(=O)c3ccccc32)cc1
inactive: [7] 93 % of control | [8] 90 % of control | [9] 86 % of control

O=C(Nc1ccc(N=Nc2ccc(S(=O)(=O)O)cc2)cc1)c1ccc(N=Nc2c(S(=O)(=O)O)cc(O)c3c(NC(=O)c4ccccc4)cc(S(=O)(=O)O)cc23)cc1
inactive: [7] 95 % of control | [8] 93 % of control | [9] 95 % of control

N#Cc1ccccc1N=NNc1ccc(-c2nc(N)nc(N)n2)cc1
inactive: dose: 50.0 mg/kg/injection, schedule: Q04DX003 (ip), vehicle: saline 100 % of control | [1] 95 % of control | [2] 100 % of control

CCOC(=O)C1=C(C(=O)c2ccc(OC)cc2)C(c2ccc(OC)c(OC)c2)C(C(=O)c2ccc(OC)cc2)=C(C(=O)OCC)N1
inactive: [5] 90 % of control | [6] 91 % of control

Oc1c(Cl)cc(Cl)cc1/C=N\NC(=S)Nc1ccccc1
inactive: dose: 100.0 mg/kg/injection, schedule: Q04DX002 (ip), vehicle: Klucel (hydroxypropylcellulose) (HPC) 97 % of control | dose: 200.0 mg/kg/injection, schedule: Q04DX002 (ip), vehicle: Klucel (hydroxypropylcellulose) (HPC) 95 % of control

O=C(N/N=C/c1cccc(O)c1)C(=O)N/N=C/c1cccc(O)c1
inactive: dose: 50.0 mg/kg/injection, schedule: Q01DX009 (ip), vehicle: water 101 % of control | dose: 100.0 mg/kg/injection, schedule: Q01DX009 (ip), vehicle: water 100 % of control | dose: 200.0 mg/kg/injection, schedule: Q01DX009 (ip), vehicle: water 102 % of control

CCCCCCCCCCCC(=O)N(CCOC(=O)C(C)(C)C)CCOC(=O)C(C)(C)C
inactive: dose: 25.0 mg/kg/injection, schedule: Q01DX009 (ip), vehicle: Klucel (hydroxypropylcellulose) (HPC) 97 % of control | dose: 50.0 mg/kg/injection, schedule: Q01DX009 (ip), vehicle: Klucel (hydroxypropylcellulose) (HPC) 104 % of control and 113 % of control and 94 % of control | dose: 100.0 mg/kg/injection, schedule: Q01DX009 (ip), vehicle: Klucel (hydroxypropylcellulose) (HPC) 100 % of control (2×) and 111 % of control | dose: 200.0 mg/kg/injection, schedule: Q01DX009 (ip), vehicle: Klucel (hydroxypropylcellulose) (HPC) 99 % of control and 120 % of control | dose: 400.0 mg/kg/injection, schedule: Q01DX009 (ip), vehicle: Klucel (hydroxypropylcellulose) (HPC) 108 % of control

CCN(CC)CCOC(=O)c1ccc(N)cc1
inactive: dose: 50.0 mg/kg/injection, schedule: Q01DX009 (ip), vehicle: saline 98 % of control | dose: 100.0 mg/kg/injection, schedule: Q01DX009 (ip), vehicle: saline 100 % of control

COc1ccc(OC)c2c(Cl)cc(N)nc12
inactive: dose: 25.0 mg/kg/injection, schedule: Q01DX005 (ip), vehicle: Klucel (hydroxypropylcellulose) (HPC) 102 % of control | dose: 50.0 mg/kg/injection, schedule: Q01DX005 (ip), vehicle: Klucel (hydroxypropylcellulose) (HPC) 106 % of control | dose: 100.0 mg/kg/injection, schedule: Q01DX005 (ip), vehicle: Klucel (hydroxypropylcellulose) (HPC) 101 % of control | dose: 200.0 mg/kg/injection, schedule: Q01DX005 (ip), vehicle: Klucel (hydroxypropylcellulose) (HPC) 102 % of control

CC(C)=CCC/C(C)=C\CN(C)C
inactive: dose: 6.25 mg/kg/injection, schedule: Q04DX002 (ip), vehicle: saline with Tween-80 100 % of control | dose: 12.5 mg/kg/injection, schedule: Q04DX002 (ip), vehicle: saline with Tween-80 103 % of control | dose: 25.0 mg/kg/injection, schedule: Q04DX002 (ip), vehicle: saline with Tween-80 94 % of control

CC(C)Cn1cnc2c(=S)nc(N)[nH]c21
inactive: dose: 8.0 mg/kg/injection, schedule: Q01DX009 (ip), vehicle: saline with Tween-80 95 % of control | dose: 16.0 mg/kg/injection, schedule: Q01DX009 (ip), vehicle: saline with Tween-80 100 % of control | dose: 32.0 mg/kg/injection, schedule: Q01DX009 (ip), vehicle: saline with Tween-80 100 % of control | dose: 64.0 mg/kg/injection, schedule: Q01DX009 (ip), vehicle: saline with Tween-80 90 % of control | [3] 109 % of control | dose: 264.0 mg/kg/injection, schedule: Q04DX003 (ip), vehicle: saline with Tween-80 100 % of control | [4] 112 % of control | dose: 600.0 mg/kg/injection, schedule: Q04DX003 (ip), vehicle: saline with Tween-80 116 % of control

Source: PubChem BioAssay AID330 (DTP/NCI, 2004)
